{"source": "patent US20110053770A1", "about": "“SUBSTITUTED AMINOTHIAZOLES AND THEIR USE AS FUNGICIDES” (BAYER CROPSCIENCE AG, priority 2009, published 2011)", "experiment": "logP by HPLC on reversed-phase columns (C 18), EEC directive 79/831 Annex V.A8", "format": "physicochemical", "conditions": "for log P (**) / log P (***): LC-MS; for log P (**) / log P (*): acidic range; for log P (**): pH 2.7, 0.1% aqueous formic acid and acetonitrile; for log P (***): neutral range, pH 7.8, 0.001 molar aqueous ammonium bicarbonate and acetonitrile; for log P (*): pH 2.3, 0.1% aqueous phosphoric acid and acetonitrile", "procedure": "Calibration was carried out using unbranched alkan-2-ones (having from 3 to 16 carbon atoms) with known logP values (the logP values were determined by the retention times using linear interpolation between two successive alkanones).", "note": "Marks after values point to notes of the source that are not given here.", "data": [{"molecule": "c1ccc(Oc2ccc(-c3csc(N=C4CCCCN4)n3)cc2)cc1", "note": "[compound 5, 4-(4-phenoxyphenyl)-N-[(2E/Z)-piperidin-2-ylidene]-1,3-thiazole-2-amine]", "values": [{"measurement": "log P (**)", "value": 2.17}, {"measurement": "log P (***)", "value": 3.97}]}, {"molecule": "Clc1cccc(Cl)c1-c1csc(N=C2CCCCN2)n1", "note": "[compound 51, 4-(2,6-dichlorophenyl)-N-[(2E/Z)-piperidin-2-ylidene]-1,3-thiazole-2-amine]", "values": [{"measurement": "log P (**)", "value": "1.42**"}]}, {"molecule": "c1cc2c(cc1-c1csc(N=C3CCCCN3)n1)OCO2", "note": "[compound 28, 4-(1,3-benzodioxol-5-yl)-N-[(2E/Z)-piperidin-2-ylidene]-1,3-thiazole-2-amine]", "values": [{"measurement": "log P (**)", "value": 1.41}, {"measurement": "log P (***)", "value": 2.65}, {"measurement": "log P (*)", "value": 1.41}]}, {"molecule": "CCOc1ccccc1-c1csc(N=C2CCCCN2C(C)=O)n1", "note": "[compound 33, 1-[(2E/Z)-2-{[4-(2-ethoxyphenyl)-1,3-thiazol-2-yl]imino}piperidin-1-yl]ethanone]", "values": [{"measurement": "log P (**)", "value": 2.71}, {"measurement": "log P (***)", "value": 5.03}, {"measurement": "log P (*)", "value": 2.71}]}, {"molecule": "Clc1ccc(-c2ccccc2-c2csc(N=C3CCCCN3)n2)cc1Cl", "note": "[compound 66, 4-(3′,4′-dichloro-biphenyl-2-yl)-N-[(2E/Z)-piperidin-2-ylidene]-1,3-thiazole-2-amine]", "values": [{"measurement": "log P (**)", "value": "2.2**"}]}, {"molecule": "CC(=O)N1CCCCC1=Nc1nc(-c2cc(F)cc(F)c2)cs1", "note": "[compound 40, 1-[(2E/Z)-2-{[4-(3,5-difluoro-phenyl)-1,3-thiazol-2-yl]imino}piperidin-1-yl]ethanone]", "values": [{"measurement": "log P (**)", "value": 3.63}, {"measurement": "log P (***)", "value": 3.62}, {"measurement": "log P (*)", "value": 3.63}]}, {"molecule": "Fc1ccc(Oc2ccc(-c3csc(N=C4CCCCN4)n3)cc2)c(F)c1", "note": "[compound 9, 4-[4-(2,4-difluorophenoxy)phenyl]-N-[(2E/Z)-piperidin-2-ylidene]-1,3-thiazole-2-amine]", "values": [{"measurement": "log P (***)", "value": 3.95}, {"measurement": "log P (*)", "value": 2.12}]}, {"molecule": "Fc1ccc(Oc2ccccc2-c2csc(N=C3CCCCN3)n2)cc1F", "note": "[compound 78, 4-[2-(3,4-difluorophenoxy)phenyl]-N-[(2E/Z)-piperidin-2-ylidene]-1,3-thiazole-2-amine]", "values": [{"measurement": "log P (***)", "value": 4.18}, {"measurement": "log P (*)", "value": 1.83}]}, {"molecule": "CC(c1ccccc1)c1csc(N=C2CCCCN2)n1", "note": "(stereo not drawn) [compound 73, 4-(1-phenylethyl)-N-[(2E/Z)-piperidin-2-ylidene]-1,3-thiazole-2-amine]", "values": [{"measurement": "log P (***)", "value": 3.27}, {"measurement": "log P (*)", "value": 1.51}]}, {"molecule": "Clc1ccc(Oc2ccccc2-c2csc(N=C3CCCN3)n2)c(Cl)c1", "note": "[compound 99, 4-[2-(2,4-dichlorophenoxy)phenyl]-N-[(2E/Z)-pyrrolidin-2-ylidene]-1,3-thiazole-2-amine]", "values": [{"measurement": "log P (**)", "value": 2.49}, {"measurement": "log P (***)", "value": 4.43}, {"measurement": "log P (*)", "value": 2.49}]}, {"molecule": "Clc1cccc(Cl)c1Cc1ccccc1-c1csc(N=C2CCCCN2)n1", "note": "[compound 91, 4-[2-(2,6-dichlorobenzyl)phenyl]-N-[(2E/Z)-piperidin-2-ylidene]-1,3-thiazole-2-amine]", "values": [{"measurement": "log P (**)", "value": 2.16}, {"measurement": "log P (***)", "value": 4.36}]}, {"molecule": "Fc1c(-c2csc(N=C3CCCCN3)n2)cccc1C(F)(F)F", "note": "[compound 26, 4-[2-fluoro-3-(trifluoromethyl)phenyl]-N-[(2E/Z)-piperidin-2-ylidene]-1,3-thiazole-2-amine]", "values": [{"measurement": "log P (**)", "value": 1.84}, {"measurement": "log P (***)", "value": 3.78}, {"measurement": "log P (*)", "value": 1.84}]}, {"molecule": "Fc1ccc(F)c(-c2csc(N=C3CCCCN3)n2)c1", "note": "[compound 19, 4-(2,5-difluorophenyl)-N-[(2E/Z)-piperidin-2-ylidene]-1,3-thiazole-2-amine]", "values": [{"measurement": "log P (**)", "value": 1.58}, {"measurement": "log P (***)", "value": 3.16}, {"measurement": "log P (*)", "value": 1.58}]}]}
